Assay results from US10576052B2, “Composition preventing bacterial inflammation in monogastric animals” (PERSTORP AB, priority 2015, dated 2020).

Experiments:
[1] = tested on: GLP-2 positive cells in the small intestine (jejunum and ileum); test: Quantification of GLP-2 positive cells in villi and crypts of jejunum and ileum of broiler chickens fed supplemented feed; format: in vivo, Ross broiler chickens; conditions: 5.6 g/kg feed from day of hatch, sampled at age of ten days
From the text: […] one-day-old Ross broiler chickens were obtained from a local hatchery. The animals were divided at random in two equal groups: one experimental groups, and one control group. The groups were housed on wood shavings in separate containers of 0.96 m^2. Commercial feed and drinking water was provided ad libitum, From the day of hatch, the experimental group received feed supplemented with glyceryl monovalerate (MV; Perstorp, 5.6 g/kg feed), according to the suppliers recommendations (in-feed supplementation). The control group, received unsupplemented feed. At the age of ten days, the animals were killed by injecting an intravenous overdose of pentobarbital and sampling was performed. Samples (1 cm in length) of jejunum and ileumn were submerged in 4% phosphate buffered (wt/vol) formaldehyde within 15 minutes after euthanasia. […] For each animal, the area of 10 randomly chosen villi and 30 randomly chosen crypts was measured for jejunum and ileum using LAS V3.8 software (Leica Microsystems GmbH, Wetzlar, Germany). In total 80 areas per bird were analysed. For every defined area, the number of cells was counted at magnification ×400. Only cells with a detectable nucleus were counted. The average number of cells per area villus or crypt (cells/mm^2) was calculated for each bird. […]

Salmonella = test: In vitro Salmonella growth inhibition; format: cell-based
HilA expression = test: Invasive gene expression (HilA expression) in Salmonella; format: cell-based

## CCCCC(=O)OCC(O)CO (stereo not shown) [glyceryl monovalerate]
[1]; P≤0.001, FIG. 1
  average number of GLP-2 positive cells in the villi of jejunum and ileum, experimental group vs control group: statistically higher
[1]; P≤0.05, FIG. 2
  average numbers of GLP2-positive cells in the crypts of jejunum and ileum, experimental group vs control group: statistically higher
Salmonella
  inhibition of Salmonella growth: effective inhibitor
HilA expression
  invasive gene expression (HilA expression) in Salmonella: down-regulated
